According to ChEMBL document CHEMBL1201862, “PubChem BioAssay data set” (2004):
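These data come from cells grown in 96-well plates and exposed to compound for 48 hours at five concentrations. GI50: concentration for 50% inhibition of growth.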 Active and inactive are the calls of the source. Rule as the data show it: active = GI50 up to about 1.1 µM and inactive = higher.

Experiments:
Experiment in all cases: NCI-60 cell line screen, 48 h
[1] = system: NCI/ADR-RES
[2] = system: A498
[3] = system: SNB-75
[4] = system: PC-3
[5] = system: 786-0
[6] = system: CCRF-CEM
[7] = system: K562
[8] = system: UO-31
[9] = system: NCI-H226
[10] = system: RPMI-8226
[11] = system: UACC-62
[12] = system: Hs-578T
[13] = system: DU-145
[14] = system: SN12C
[15] = system: HL-60
[16] = system: OVCAR-3
[17] = system: BT-549
[18] = system: EKVX
[19] = system: SW-620
[20] = system: MDA-N
[21] = system: HCT-116
[22] = system: MDA-MB-435
[23] = system: M14
[24] = system: RXF 393
[25] = system: HOP-92
[26] = system: HCC 2998
[27] = system: SK-MEL-5
[28] = system: SF-295
[29] = system: SK-MEL-2
[30] = system: MDA-MB-231
[31] = system: MOLT-4
[32] = system: SK-OV-3
[33] = system: IGROV-1
[34] = system: SF-268
[35] = system: SR
[36] = system: T47D
[37] = system: MCF7
[38] = system: OVCAR-4
[39] = system: HOP-62
[40] = system: LOX IMVI
[41] = system: SNB-19
[42] = system: NCI-H522
[43] = system: TK-10
[44] = system: CAKI-1
[45] = system: HCT-15
[46] = system: UACC-257
[47] = system: NCI-H23
[48] = system: OVCAR-8
[49] = system: SF-539
[50] = system: COLO 205
[51] = system: U-251
[52] = system: KM12
[53] = system: NCI-H460
[54] = system: ACHN
[55] = system: OVCAR-5
[56] = system: Malme-3M
[57] = system: SK-MEL-28
[58] = system: HT-29
[59] = system: A549

With `CC12CCC([C@H](C(O)C3CCCCC3)C1=O)C2(C)C` (stereo partly drawn) the GI50 [1] was > 100 µM (inactive), the GI50 [2] was > 100 µM (inactive) and the GI50 [3] was > 100 µM (inactive). For the same molecule, the GI50 [4] was > 100 µM (inactive), the GI50 [5] was > 100 µM (inactive) and the GI50 [6] was 31.6 µM (inactive). The GI50 [7] was 63 µM (inactive), the GI50 [8] was > 100 µM (inactive) and the GI50 [9] was > 100 µM (inactive). The GI50 [10] was 49.4 µM (inactive), the GI50 [11] was > 100 µM (inactive) and the GI50 [12] was > 100 µM (inactive). For the same molecule, the GI50 [13] was > 100 µM (inactive), the GI50 [14] was > 100 µM (inactive) and the GI50 [15] was 13.9 µM (inactive). The GI50 [16] was > 100 µM (inactive), the GI50 [17] was > 100 µM (inactive) and the GI50 [18] was > 100 µM (inactive). The GI50 [19] was > 100 µM (inactive), the GI50 [20] was > 100 µM (inactive) and the GI50 [21] was > 100 µM (inactive). For the same molecule, the GI50 [22] was > 100 µM (inactive), the GI50 [23] was > 100 µM (inactive) and the GI50 [24] was 75.2 µM (inactive). For the same molecule, the GI50 [25] was > 100 µM (inactive), the GI50 [26] was > 100 µM (inactive) and the GI50 [27] was 82.2 µM (inactive). For the same molecule, the GI50 [28] was > 100 µM (inactive), the GI50 [29] was > 100 µM (inactive) and the GI50 [30] was > 100 µM (inactive). For the same molecule, the GI50 [31] was 44.3 µM (inactive), the GI50 [32] was > 100 µM (inactive) and the GI50 [33] was > 100 µM (inactive). For the same molecule, the GI50 [34] was > 100 µM (inactive), the GI50 [35] was 22.4 µM (inactive) and the GI50 [36] was > 100 µM (inactive). For the same molecule, the GI50 [37] was > 100 µM (inactive), the GI50 [38] was > 100 µM (inactive) and the GI50 [39] was > 100 µM (inactive). For the same molecule, the GI50 [40] was > 100 µM (inactive), the GI50 [41] was > 100 µM (inactive) and the GI50 [42] was 65.8 µM (inactive). The GI50 [43] was > 100 µM (inactive), the GI50 [44] was > 100 µM (inactive) and the GI50 [45] was > 100 µM. The GI50 [46] was > 100 µM (inactive), the GI50 [47] was > 100 µM (inactive) and the GI50 [48] was > 100 µM (inactive). The GI50 [49] was > 100 µM (inactive), the GI50 [50] was > 100 µM (inactive) and the GI50 [51] was > 100 µM (inactive). For the same molecule, the GI50 [52] was > 100 µM (inactive), the GI50 [53] was > 100 µM (inactive) and the GI50 [54] was > 100 µM (inactive). The GI50 [55] was > 100 µM (inactive).
In the case of `CCCCCCCCCCCCCCCCP(=O)([O-])OCC[N+](C)(C)C`, the GI50 [1] was 18.7 µM (inactive), the GI50 [2] was 14.5 µM (inactive) and the GI50 [3] was 14.8 µM (inactive). The GI50 [4] was 1.71 µM (inactive), the GI50 [5] was 7.46 µM (inactive) and the GI50 [6] was 8.47 µM (inactive). The GI50 [7] was 19 µM (inactive), the GI50 [8] was 14.9 µM (inactive) and the GI50 [9] was 23 µM (inactive). The GI50 [10] was 15.3 µM (inactive), the GI50 [11] was 13.9 µM (inactive) and the GI50 [12] was 15.8 µM (inactive). For the same molecule, the GI50 [13] was 14.7 µM (inactive), the GI50 [14] was 12.9 µM (inactive) and the GI50 [16] was 17.1 µM (inactive). The GI50 [17] was 9.53 µM (inactive), the GI50 [18] was 20.1 µM (inactive) and the GI50 [19] was 14.5 µM (inactive). The GI50 [20] was 15.4 µM (inactive), the GI50 [21] was 14.8 µM (inactive) and the GI50 [22] was 17.3 µM (inactive). The GI50 [23] was 15.3 µM (inactive), the GI50 [24] was 3.93 µM (inactive) and the GI50 [25] was 15 µM (inactive). For the same molecule, the GI50 [26] was 6.19 µM (inactive), the GI50 [27] was 16 µM (inactive) and the GI50 [28] was 12.9 µM (inactive). The GI50 [29] was 15.1 µM (inactive), the GI50 [30] was 20.5 µM (inactive) and the GI50 [31] was 17.2 µM (inactive). For the same molecule, the GI50 [32] was 7.4 µM (inactive), the GI50 [33] was 1.56 µM (inactive) and the GI50 [34] was 17.6 µM (inactive). The GI50 [35] was 10.4 µM (inactive), the GI50 [36] was 17.6 µM (inactive) and the GI50 [37] was 17.5 µM (inactive). The GI50 [38] was 19.1 µM (inactive), the GI50 [39] was 15.2 µM (inactive) and the GI50 [40] was 14.9 µM (inactive). The GI50 [41] was 30 µM (inactive), the GI50 [56] was 21.3 µM (inactive) and the GI50 [42] was 22.6 µM (inactive). The GI50 [43] was 1.5 µM (inactive), the GI50 [44] was 12.1 µM (inactive) and the GI50 [57] was 18.5 µM (inactive). For the same molecule, the GI50 [58] was 12.7 µM (inactive), the GI50 [45] was 6.56 µM and the GI50 [46] was 16.9 µM (inactive). The GI50 [47] was 20.2 µM (inactive), the GI50 [48] was 16.9 µM (inactive) and the GI50 [49] was 24.5 µM (inactive). The GI50 [50] was 6.58 µM (inactive), the GI50 [51] was 16.7 µM (inactive) and the GI50 [59] was 18.1 µM (inactive). For the same molecule, the GI50 [52] was 2.61 µM (inactive), the GI50 [53] was 5.75 µM (inactive) and the GI50 [54] was 16.5 µM (inactive). For the same molecule, the GI50 [55] was 8.55 µM (inactive).
